Drawing on PubChem BioAssay (NCI), this text covers GI50 and TGI for 8 compounds.

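Test compounds were applied to cells in 96-well plates for 48 hours at 5 doses. The concentration for 50% growth inhibition is given as GI50. TGI: concentration producing complete growth inhibition.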 Some results are limits rather than exact numbers.

Some test systems named below: SW-620 colon; TK-10 renal; A549 NSCLC; U251 CNS; LOX IMVI melanoma; NCI-H23 lung; HS 578T breast; IGROV1 ovarian; OVCAR-5 ovarian; T-47D breast.
What all share (assay): NCI anticancer screen, dose series, 48 h

As to `CCCCCC[C@H](C)Nc1nc2ccccc2c2occc12`, the GI50 is 5.46 µM in the assay on SW-620 colon; 6.46 µM in the assay with TK-10 renal; 8.3 µM with A549 NSCLC; 9.94 µM with U251 CNS; 8.61 µM in the assay with LOX IMVI melanoma; 0.576 µM in the assay on NCI-H23 lung. Also, the GI50 in the assay on HS 578T breast was 12.8 µM; in the assay with IGROV1 ovarian, 0.787 µM; in the assay on OVCAR-5 ovarian it was 5.54 µM; in the assay with T-47D breast it was 33.2 µM. Further, the TGI in the assay on SW-620 colon turned out to be 22.2 µM; with TK-10 renal it was 20.9 µM; in the assay on A549 NSCLC it was 26.2 µM; in the assay with U251 CNS it was 21.7 µM; in the assay on LOX IMVI melanoma, 21.4 µM; with NCI-H23 lung, 7.23 µM. In addition, the TGI came out at 37.7 µM with HS 578T breast, 13.2 µM with IGROV1 ovarian, 20.3 µM in the assay with OVCAR-5 ovarian and 61.8 µM in the assay with T-47D breast.
In the case of `CN(C)c1nc2ccccc2c2c1c1c(n2Cc2ccccc2)-c2ccccc2C1=O`, the GI50 in the assay with SW-620 colon, in the assay on TK-10 renal, in the assay on A549 NSCLC, with U251 CNS, in the assay on LOX IMVI melanoma and in the assay with NCI-H23 lung was more than 100 µM throughout. Moreover, the GI50 was 27.2 µM in the assay on IGROV1 ovarian, more than 100 µM in the assay on OVCAR-5 ovarian and 55.6 µM in the assay with T-47D breast. For the same compound, the TGI with SW-620 colon, with TK-10 renal, in the assay with A549 NSCLC, in the assay with U251 CNS, in the assay with LOX IMVI melanoma and in the assay on NCI-H23 lung was more than 100 µM each time. The TGI in the assay with HS 578T breast is 75.9 µM; with IGROV1 ovarian, more than 100 µM; in the assay with OVCAR-5 ovarian, more than 100 µM; in the assay with T-47D breast, more than 100 µM.
Take `COc1cc(NC(=O)CCSc2nc3ccc(C)cc3c(=O)n2Cc2ccccc2)cc(OC)c1OC`: the GI50 in the assay with SW-620 colon is more than 100 µM; in the assay with TK-10 renal, 7.43 µM; in the assay with A549 NSCLC, 8.08 µM; in the assay on U251 CNS, 7.06 µM; in the assay with LOX IMVI melanoma it was 6.4 µM; in the assay with NCI-H23 lung, 26.6 µM. In addition, the GI50 with HS 578T breast was 2.18 µM; in the assay with IGROV1 ovarian, 27.7 µM; in the assay on OVCAR-5 ovarian, more than 100 µM; in the assay with T-47D breast, 7.04 µM. Moreover, the TGI with SW-620 colon was more than 100 µM; in the assay with TK-10 renal, 28.4 µM; with A549 NSCLC it was more than 100 µM; in the assay on U251 CNS it was 63.1 µM; in the assay with LOX IMVI melanoma, more than 100 µM; in the assay on NCI-H23 lung, more than 100 µM. The TGI in the assay with HS 578T breast was 6.74 µM; in the assay with IGROV1 ovarian, more than 100 µM; in the assay on OVCAR-5 ovarian it was more than 100 µM; in the assay with T-47D breast, more than 100 µM.
For the compound `O=c1/c(=C\c2ccc(F)cc2)sc2n1C(c1ccc(F)cc1)C1=C(N=2)c2ccc3ccccc3c2OCC1` (centres undefined), the GI50 in the assay with SW-620 colon, with TK-10 renal, with A549 NSCLC, in the assay on U251 CNS, in the assay with LOX IMVI melanoma and in the assay with NCI-H23 lung was more than 100 µM in each case. Moreover, the GI50 in the assay on HS 578T breast, in the assay with IGROV1 ovarian, in the assay on OVCAR-5 ovarian and in the assay with T-47D breast was more than 100 µM each time. Further, the TGI with SW-620 colon, in the assay with TK-10 renal, with A549 NSCLC, in the assay on U251 CNS, in the assay with LOX IMVI melanoma and in the assay on NCI-H23 lung was more than 100 µM each time. Moreover, the TGI in the assay with HS 578T breast, in the assay on IGROV1 ovarian, with OVCAR-5 ovarian and in the assay on T-47D breast was more than 100 µM in each case.
Consider `CCOc1c(N=Nc2ccccc2Cl)c(-c2ccccc2)nn1C(=S)S`, for which the TGI was more than 100 µM with SW-620 colon; more than 100 µM with TK-10 renal; more than 100 µM in the assay with A549 NSCLC; more than 100 µM with U251 CNS; 46.1 µM in the assay on LOX IMVI melanoma; more than 100 µM in the assay on NCI-H23 lung. The TGI with HS 578T breast was 75.4 µM; in the assay on IGROV1 ovarian it was more than 100 µM; in the assay with OVCAR-5 ovarian, more than 100 µM; in the assay with T-47D breast, more than 100 µM.
Turning to `COc1ncnc(S(=O)(=O)c2ccc(N=C3C(=O)N(CN4CCN(c5cc6c(cc5F)c(=O)c(C(=O)O)cn6C5CC5)CC4)c4ccc(Cl)cc43)cc2)c1OC`, the GI50 with SW-620 colon is more than 50 µM; in the assay on TK-10 renal, 8.78 µM; in the assay on A549 NSCLC it was more than 50 µM; in the assay on U251 CNS it was 18.7 µM; in the assay on LOX IMVI melanoma it was 23.8 µM; with NCI-H23 lung, more than 50 µM. Also, the GI50 was 6.16 µM in the assay on HS 578T breast, more than 50 µM with IGROV1 ovarian, more than 50 µM in the assay with OVCAR-5 ovarian and more than 50 µM with T-47D breast. Also, the TGI was more than 50 µM with SW-620 colon; 36.7 µM in the assay on TK-10 renal; more than 50 µM with A549 NSCLC; more than 50 µM in the assay on U251 CNS; more than 50 µM in the assay on LOX IMVI melanoma; more than 50 µM with NCI-H23 lung. Further, the TGI with HS 578T breast, with IGROV1 ovarian, in the assay on OVCAR-5 ovarian and in the assay with T-47D breast was more than 50 µM throughout.
Regarding `Cc1c2c(c(C)c3c4c(oc13)CCCC4)C=NCC2`, the TGI worked out at 59.3 µM in the assay with SW-620 colon; 25.4 µM with TK-10 renal; 32.4 µM with A549 NSCLC; 26.8 µM in the assay on U251 CNS; 38.3 µM in the assay on LOX IMVI melanoma; 31.9 µM in the assay on NCI-H23 lung. Further, the TGI is 53 µM in the assay with HS 578T breast, 26.5 µM in the assay with IGROV1 ovarian, 32.1 µM in the assay on OVCAR-5 ovarian and more than 100 µM in the assay with T-47D breast.
With `COc1cc2c(cc1OCCCCCCN1CCN(CC(=O)Nc3ccc(Cl)cc3C(=O)c3ccccc3Cl)CC1)N=CC1CCCN1C2=O` (centres undefined), the GI50 in the assay with SW-620 colon was 0.211 µM; in the assay with TK-10 renal it was 0.497 µM; in the assay on A549 NSCLC it was 0.251 µM; with U251 CNS, 0.258 µM; in the assay on LOX IMVI melanoma, 0.157 µM; in the assay with NCI-H23 lung, 0.198 µM. The GI50 in the assay with HS 578T breast was 0.243 µM; in the assay with IGROV1 ovarian, 0.195 µM; in the assay with OVCAR-5 ovarian, 0.567 µM; with T-47D breast, 0.164 µM. Moreover, the TGI in the assay on SW-620 colon was determined as 0.591 µM; with TK-10 renal, 1.17 µM; in the assay with A549 NSCLC, 0.765 µM; in the assay with U251 CNS it was 0.725 µM; in the assay with LOX IMVI melanoma, 0.305 µM; with NCI-H23 lung it was 0.468 µM. The TGI in the assay on HS 578T breast stood at 0.589 µM; with IGROV1 ovarian, 0.388 µM; with OVCAR-5 ovarian it was 1.34 µM; in the assay with T-47D breast, 0.415 µM.
